In ChEMBL document CHEMBL5543108, “Structure-based design and synthesis of BML284 derivatives: A novel class of colchicine-site noncovalent tubulin degradation agents” (Eur J Med Chem, 2024):
pIC50: −log10 of the molar value.

How the values were obtained:
[1] = test system: A549; assay: Antiproliferative activity against human A549 cells assessed as reduction in cell viability measured after 72 hrs; assay type: functional, cell-based; conditions: A549, 72 h
[2] = Volume of distribution at steady state in male Sprague-Dawley rat at 10 mg/kg, po; assay type: ADME, organism-based; conditions: in vivo
[3] = test system: A2780/Taxol; assay: Antitumor activity against human A2780T cells xenografted in mouse model assessed as tumor growth inhibition at 20 mg/kg, iv administered every two days for 18 days relative to control; assay type: functional; conditions: 432 h, time 18 day, read-out: TGI
[4] = test system: HeLa; assay: Antiproliferative activity against human HeLa cells assessed as reduction in cell viability measured after 72 hrs; assay type: functional, cell-based
[5] = test system: A2780S; assay: Antitumor activity against human A2780S cells xenografted in mouse model assessed as tumor growth inhibition at 20 mg/kg, iv administered every two days for 12 days relative to control; assay type: functional; conditions: 288 h, time 12 day, read-out: TGI
[6] = AUC (0 to t) in male Sprague-Dawley rat at 10 mg/kg, iv; assay type: ADME, organism-based; conditions: in vivo
[7] = Half life in male Sprague-Dawley rat at 10 mg/kg, po; assay type: ADME, organism-based; conditions: in vivo
[8] = Volume of distribution at steady state in male Sprague-Dawley rat at 10 mg/kg, iv; assay type: ADME, organism-based; conditions: in vivo, read-out: Vdss
[9] = test system: A2780/Taxol; assay: Induction of cell cycle arrest in human A2780T cells assessed as accumulation of cells at G0/G1 phase at 30 nM measured after 24 hrs by propidium iodide staining based analysis (reference value: 46.141%); assay type: functional
[10] = test system: A2780S; assay: Induction of cell cycle arrest in human A2780S cells assessed as accumulation of cells at G0/G1 phase at 10 nM measured after 24 hrs by propidium iodide staining based analysis (reference value: 51.71%); assay type: functional
[11] = Selectivity ratio of IC50 for paclitaxel resistant human A549/Taxol cells to IC50 for human A549
[12] = test system: HUVEC; assay: Antivascular activity against human HUVEC cells assessed as inhibition of capillary tube formation at 40 nM incubated for 6 hrs by microscopy based analysis relative to control; assay type: functional; parameters: scale not given: the % may be the effect or the level left
[13] = test system: A2780S; assay: Induction of cell cycle arrest in human A2780S cells assessed as accumulation of cells at G2/M phase at 30 nM measured after 24 hrs by propidium iodide staining based analysis (reference value: 18.43%); assay type: functional
[14] = test system: A2780S; assay: Induction of cell cycle arrest in human A2780S cells assessed as accumulation of cells at G0/G1 phase at 300 nM measured after 24 hrs by propidium iodide staining based analysis (reference value: 51.71%); assay type: functional
[15] = Toxicity in mouse xenografted with human A2780S cells assessed as side effects at 10 to 30 mg/kg, iv measured upto 12 days; assay type: organism-based; conditions: in vivo, 288 h, dose 10-30 mg/kg, time < 12 day
[16] = test system: A2780S; assay: Induction of cell cycle arrest in human A2780S cells assessed as accumulation of cells at G2/M phase at 3 nM measured after 24 hrs by propidium iodide staining based analysis (reference value: 18.43%); assay type: functional
[17] = test system: A2780/Taxol; assay: Induction of apoptosis in human A2780T cells assessed as total number of late apoptotic cells at 100 nM measured after 48 hrs by Annexin-V-FITC and PI staining based flow cytometry analysis (reference value: 3.42%); assay type: functional
[18] = Cmax in male Sprague-Dawley rat at 10 mg/kg, iv; assay type: ADME, organism-based; conditions: in vivo
[19] = test system: NCI/ADR-RES; assay: Antiproliferative activity against human MCF7ADR cells assessed as reduction in cell viability measured after 72 hrs; assay type: functional, cell-based
[20] = test system: A2780S; assay: Induction of apoptosis in human A2780S cells assessed as total number of late apoptotic cells at 30 nM measured after 48 hrs by Annexin-V-FITC and PI staining based flow cytometry analysis (reference value: 3.42%); assay type: functional
[21] = test system: A2780/Taxol; assay: Induction of cell cycle arrest in human A2780T cells assessed as accumulation of cells at G0/G1 phase at 300 nM measured after 24 hrs by propidium iodide staining based analysis (reference value: 46.141%); assay type: functional
[22] = test system: HUVEC; assay: Antivascular activity against human HUVEC cells assessed as inhibition of capillary tube formation incubated for 24 hrs by microscopy based analysis; assay type: functional, cell-based
[23] = test system: A2780/Taxol; assay: Induction of cell cycle arrest in human A2780T cells assessed as accumulation of cells at G2/M phase at 10 nM measured after 24 hrs by propidium iodide staining based analysis (reference value: 24.13%); assay type: functional
[24] = test system: MOLM-13; assay: Antiproliferative activity against human MOLM-13 cells assessed as reduction in cell viability measured after 72 hrs; assay type: functional, cell-based; conditions: MOLM-13, 72 h
[25] = test system: A2780/Taxol; assay: Induction of apoptosis in human A2780T cells assessed as total number of late apoptotic cells at 30 nM measured after 48 hrs by Annexin-V-FITC and PI staining based flow cytometry analysis (reference value: 3.42%); assay type: functional
[26] = test system: A2780/Taxol; assay: Induction of cell cycle arrest in human A2780T cells assessed as accumulation of cells at G2/M phase at 3 nM measured after 24 hrs by propidium iodide staining based analysis (reference value: 24.13%); assay type: functional
[27] = test system: A2780S; assay: Induction of cell cycle arrest in human A2780S cells assessed as accumulation of cells at G2/M phase at 300 nM measured after 24 hrs by propidium iodide staining based analysis (reference value: 18.43%); assay type: functional
[28] = test system: A2780/Taxol; assay: Antitumor activity against human A2780T cells xenografted in mouse model assessed as tumor growth inhibition at 10 mg/kg, iv administered every two days for 18 days relative to control; assay type: functional; conditions: 432 h, time 18 day, read-out: TGI
[29] = Selectivity ratio of IC50 for human MCF7ADR cells to IC50 for human MCF7; assay type: toxicity
[30] = test system: A2780/Taxol; assay: Induction of cell cycle arrest in human A2780T cells assessed as accumulation of cells at S phase at 300 nM measured after 24 hrs by propidium iodide staining based analysis (reference value: 29.73%); assay type: functional
[31] = Half life in male Sprague-Dawley rat at 10 mg/kg, iv; assay type: ADME, organism-based; conditions: in vivo
[32] = test system: A2780/Taxol; assay: Induction of cell cycle arrest in human A2780T cells assessed as accumulation of cells at G0/G1 phase at 100 nM measured after 24 hrs by propidium iodide staining based analysis (reference value: 46.141%); assay type: functional
[33] = test system: A2780S; assay: Antiproliferative activity against human A2780S cells assessed as reduction in cell viability measured after 72 hrs; assay type: functional, cell-based
[34] = test system: A2780/Taxol; assay: Induction of cell cycle arrest in human A2780T cells assessed as accumulation of cells at S phase at 10 nM measured after 24 hrs by propidium iodide staining based analysis (reference value: 29.73%); assay type: functional
[35] = test system: A2780/Taxol; assay: Induction of cell cycle arrest in human A2780T cells assessed as accumulation of cells at G0/G1 phase at 3 nM measured after 24 hrs by propidium iodide staining based analysis (reference value: 46.141%); assay type: functional
[36] = test system: A2780S; assay: Antitumor activity against human A2780S cells xenografted in mouse model assessed as tumor growth inhibition at 30 mg/kg, iv administered every two days for 12 days relative to control; assay type: functional; conditions: 288 h, time 12 day, read-out: TGI
[37] = test system: A2780/Taxol; assay: Induction of apoptosis in human A2780T cells assessed as total number of late apoptotic cells at 300 nM measured after 48 hrs by Annexin-V-FITC and PI staining based flow cytometry analysis (reference value: 3.42%); assay type: functional

**Q.** With `COc1cccc(-c2cc(NCc3ccc4[nH]ccc4c3)nc(N)n2)c1` as the molecule, how does the pIC50 [1] read?
**A.** 7.47

**Q.** And the Vdss [2]?
**A.** 154.68 L/kg

**Q.** What about the inhibition in vivo at 20 mg/kg [3] of the same molecule?
**A.** 68.2%

**Q.** And the pIC50 [4]?
**A.** 7.30

**Q.** What about the inhibition in vivo at 20 mg/kg [5] of the same molecule?
**A.** 63.6%

**Q.** And the AUC(0-t) [6]?
**A.** 4270 ng·h/mL

**Q.** And the half-life [7]?
**A.** 5.94 h

**Q.** And the Vd [8]?
**A.** 7.43 L/kg

**Q.** And the Activity [9]?
**A.** 44.27%

**Q.** And the Activity [10]?
**A.** 48.57%

**Q.** And the “Ratio IC50” value [11]?
**A.** 1.1

**Q.** And the Activity [12]?
**A.** 100%

**Q.** And the Activity [13]?
**A.** 23.82%

**Q.** And the Activity [14]?
**A.** 1.54%

**Q.** And the Activity [15]?
**A.** Toxic

**Q.** And the Activity [16]?
**A.** 23.17%

**Q.** And the Activity [17]?
**A.** 14.43%

**Q.** And the Cmax [18]?
**A.** 2890 ng/mL

**Q.** What about the pIC50 [19] of the same molecule?
**A.** 7.49

**Q.** And the Activity [20]?
**A.** 5.29%

**Q.** And the Activity [21]?
**A.** 4.64%

**Q.** And the pIC50 [22]?
**A.** 6.21

**Q.** And the Activity [23]?
**A.** 20.61%

**Q.** What about the pIC50 [24] of the same molecule?
**A.** 7.70

**Q.** What about the Activity [25] of the same molecule?
**A.** 5.29%

**Q.** And the Activity [26]?
**A.** 19.35%

**Q.** And the Activity [27]?
**A.** 82.11%

**Q.** And the inhibition in vivo at 10 mg/kg [28]?
**A.** 52.2%

**Q.** What about the “Ratio IC50” value [29] of the same molecule?
**A.** 1.6

**Q.** What about the Activity [30] of the same molecule?
**A.** 11.38%

**Q.** What about the half-life [31] of the same molecule?
**A.** 1.93 h

**Q.** What about the Activity [32] of the same molecule?
**A.** 7.72%

**Q.** What about the pIC50 [33] of the same molecule?
**A.** 7.74

**Q.** And the Activity [34]?
**A.** 32.91%

**Q.** And the Activity [35]?
**A.** 50.87%

**Q.** What about the inhibition in vivo at 30 mg/kg [36] of the same molecule?
**A.** 79.4%

**Q.** What about the Activity [37] of the same molecule?
**A.** 15.57%
